For data set [1], the target named is T1, Aromatase (Homo sapiens, UniProt P11511).
T1 sequence (P11511 whole entry): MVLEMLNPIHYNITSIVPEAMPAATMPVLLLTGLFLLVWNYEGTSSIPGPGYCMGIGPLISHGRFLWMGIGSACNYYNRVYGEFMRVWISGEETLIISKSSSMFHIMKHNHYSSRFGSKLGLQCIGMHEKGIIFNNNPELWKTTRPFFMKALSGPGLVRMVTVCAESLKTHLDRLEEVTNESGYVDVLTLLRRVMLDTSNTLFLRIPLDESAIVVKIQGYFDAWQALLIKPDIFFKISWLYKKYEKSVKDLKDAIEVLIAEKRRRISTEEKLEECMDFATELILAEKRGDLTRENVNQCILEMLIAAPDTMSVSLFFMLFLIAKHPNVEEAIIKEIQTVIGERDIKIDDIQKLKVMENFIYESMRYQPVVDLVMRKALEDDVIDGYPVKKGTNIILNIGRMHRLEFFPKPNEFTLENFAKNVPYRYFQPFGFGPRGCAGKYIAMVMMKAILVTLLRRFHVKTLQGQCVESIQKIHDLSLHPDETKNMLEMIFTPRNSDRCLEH
The experiment in a line: Inhibition of aromatase using 7-methoxy-4-trifluoromethyl coumarin as substrate after 30 mins by fluorescence-based colorimetric analysis.

The test system of data set [2] is NCI-H295R. Briefly: Antiproliferative activity against human NCI-H295R cells at 10 nM after 24 hrs by Cell titer blue assay. Format: functional.
Data set [3] deals with NCI-H295R. Briefly: Antiproliferative activity against human NCI-H295R cells at 10 nM after 72 hrs by Cell titer blue assay. Format: functional.
The test system of data set [4] is NCI-H295R. The experiment in a line: Antiproliferative activity against human NCI-H295R cells assessed as [3H]thymidine incorporation at 10 nM after 24 hrs by scintillation counting. Format: functional. Conditions: read-out: GI.
Data set [5] deals with NCI-H295R. Briefly: Antiproliferative activity against human NCI-H295R cells assessed as cell viability at 10 nM after 24 to 72 hrs by Cell titer blue assay. Format: functional. Conditions: read-out: GI.
Data set [6] has as its target T1, Aromatase. The experiment in a line: Ratio of letrozole IC50 to compound IC50 for aromatase.

Active and inactive are the calls of the source. The rule behind the calls is not given here.

On Aromatase [1], `c1ccc(Cn2ccnc2)cc1` [BENZYLIMIDAZOLE] had an IC50 of 0.15 µM. On the same count and under the same terms, the figure for `COc1ccc(OCc2cn(C(c3ccccc3)c3ccccc3)nn2)cc1` is 15.2 µM; for `c1ccc(C(c2ccccc2)n2cc(C3CCCCC3)nn2)cc1` it is 13.7 µM. Still for that read-out and setting: to `N#Cc1ccc(Cn2cncn2)cc1` belongs 0.15 µM; to `N#Cc1ccc(Cn2cc(COc3ccc(C#N)cc3)nn2)cc1`, 9.16 µM; to `N#Cc1ccc(Cn2cc(COc3ccc(-c4ccccc4)cc3)nn2)cc1`, 11.6 µM. The compound `N#Cc1ccc(C(c2ccc(C#N)cc2)n2cc(COc3ccc(-c4ccccc4)cc3)nn2)cc1` displayed an IC50 against Aromatase [1] of 13.3 µM.

As for `CCCCCCCCCCc1cn(Cc2ccc(C#N)cc2)nn1`, at Aromatase [1], the IC50 worked out at 7.88 µM. Same read-out and setting: to `Cc1ccc(OCc2cn(Cc3ccc(C#N)cc3)nn2)cc1` belongs 4.17 µM; to `CCCCCCc1cn(Cc2ccccc2)nn1`, 7.47 µM. On Aromatase [1], `c1ccc(OCc2cn(C(c3ccccc3)c3ccccc3)nn2)cc1` returned an IC50 of 31.3 µM. On the same count and under the same terms, the figure for `CCCCCCCc1cn(C(c2ccccc2)c2ccccc2)nn1` is 19.4 µM. Same read-out and setting: to `N#Cc1ccc(C(c2ccc(C#N)cc2)n2nccn2)cc1` belongs 80 µM.

Consider `N#Cc1ccc(OCc2cn(C(c3ccc(C#N)cc3)c3ccc(C#N)cc3)nn2)cc1`, for which, at Aromatase [1], the IC50 turned out to be 4.64 µM. The inhibition of growth at 0.01 µM turned out to be 76% with NCI-H295R [2] (read-out: GI) and 99% in the data set with NCI-H295R [3] (read-out: GI). On Aromatase [1], `CCCc1cn(Cc2ccccc2)nn1` showed a half-maximal inhibitory concentration (IC50) of 12.6 µM. Same read-out and setting: to `CCCc1cn(Cc2ccc(C#N)cc2)nn1` belongs 4.37 µM; to `CCCCCCCc1cn(C(c2ccc(C#N)cc2)c2ccc(C#N)cc2)nn1`, 10.6 µM. At Aromatase [1], `c1ccc(C(c2ccccc2)n2nccn2)cc1` gave an IC50 of 12 µM.

As to `CCCCCCc1cn(Cc2ccc(C#N)cc2)nn1`, on Aromatase [1], half-maximal inhibition (IC50) required 5.26 µM. This IC50 lies about 2.3-fold lower than the previous one. Consider `N#Cc1ccc(C(c2ccc(C#N)cc2)n2cncn2)cc1` [LETROZOLE], for which, in the data set on NCI-H295R [4], the inhibition of growth at 0.01 µM came to 10%.

Regarding `N#Cc1ccc(Cn2cc(C3CCCCC3)nn2)cc1`, 10.7 µM corresponded to half-maximal inhibition against Aromatase [1] (IC50).

Regarding `c1ccc(Cn2cc(C3CCCCC3)nn2)cc1`, at Aromatase [1], 7.98 µM corresponded to half-maximal inhibition (IC50). This IC50 and that of the compound before are within 1.5-fold of each other. Still for that read-out and setting: the figure for `c1ccc(Cn2cc(-c3ccccc3)nn2)cc1` is 9.77 µM; for `CCCCCCc1cn(C(c2ccc(C#N)cc2)c2ccc(C#N)cc2)nn1` it is 5.07 µM; for `Clc1ccc(OCc2cn(Cc3ccccc3)nn2)cc1` it is 5.04 µM. Still for that read-out and setting: to `CCCc1cn(C(c2ccccc2)c2ccccc2)nn1` belongs 11 µM; to `Clc1ccc(OCc2cn(C(c3ccccc3)c3ccccc3)nn2)cc1`, 13.4 µM. Same read-out and setting: to `c1ccc(-c2cn(C(c3ccccc3)c3ccccc3)nn2)cc1` belongs 12.9 µM; to `Cc1ccc(OCc2cn(C(c3ccc(C#N)cc3)c3ccc(C#N)cc3)nn2)cc1`, 11 µM; to `N#Cc1ccc(C(c2ccc(C#N)cc2)n2cc(COc3ccc(Cl)cc3)nn2)cc1`, 16.1 µM. For `c1ccc(-c2ccc(OCc3cn(C(c4ccccc4)c4ccccc4)nn3)cc2)cc1`, the IC50 against Aromatase [1] is 15.5 µM.

As to `N#Cc1ccc(C(c2ccc(C#N)cc2)n2cc(COc3ccc([N+](=O)[O-])cc3)nn2)cc1`, the concentration for half-maximal inhibition (IC50) against Aromatase [1] came to 7.73 µM. The same measure, in the same setting: to `O=[N+]([O-])c1ccc(OCc2cn(Cc3ccccc3)nn2)cc1` belongs 2.78 µM.

For `N#Cc1ccc(OCc2cn(Cc3ccccc3)nn2)cc1`, at Aromatase [1], the IC50 came out at 1.36 µM. Besides, the “growth inhibition (GI)” value in the data set on NCI-H295R [2] and in the data set with NCI-H295R [3] was “inactive” throughout. On to `c1ccc(Cn2cc(COc3ccc(-c4ccccc4)cc3)nn2)cc1`, for which the concentration for half-maximal inhibition (IC50) against Aromatase [1] is 10.7 µM. Consider `N#Cc1ccc(C(c2ccc(C#N)cc2)n2cc(-c3ccccc3)nn2)cc1`, for which half-maximal inhibition at Aromatase [1] (IC50) was put at 10.3 µM. On the same count and under the same terms, the figure for `CCCCCCCCCCc1cn(C(c2ccccc2)c2ccccc2)nn1` is 13.5 µM. Same read-out and setting: to `c1ccc(Cn2ccnn2)cc1` belongs 11.9 µM.

As to `COc1ccc(OCc2cn(C(c3ccc(C#N)cc3)c3ccc(C#N)cc3)nn2)cc1`, at Aromatase [1], the IC50 turned out to be 12.2 µM. Turning to `N#Cc1ccc(C(c2ccc(C#N)cc2)n2ccnc2)cc1`, the inhibition of growth at 0.01 µM with NCI-H295R [5] stood at 40%.

Turning to `COc1ccc(OCc2cn(Cc3ccc(C#N)cc3)nn2)cc1`, inhibition on Aromatase [1] was half-maximal at 2.34 µM (IC50).

With `N#Cc1ccc(Cn2cc(COc3ccccc3)nn2)cc1`, inhibition on Aromatase [1] was half-maximal at 6.09 µM (IC50). On the same count and under the same terms, the figure for `CCCCCCc1cn(C(c2ccccc2)c2ccccc2)nn1` is 14.8 µM; for `Cc1ccc(OCc2cn(Cc3ccccc3)nn2)cc1` it is 2.27 µM. On the same count and under the same terms, to `CCCCCCCCCCc1cn(Cc2ccccc2)nn1` belongs 6.4 µM.

For `N#Cc1ccc(Cn2cc(COc3ccc(Cl)cc3)nn2)cc1`, the IC50 against Aromatase [1] came out at 3.91 µM. Same read-out and setting: the figure for `N#Cc1ccc(OCc2cn(C(c3ccccc3)c3ccccc3)nn2)cc1` is 16.4 µM; for `N#Cc1ccc(C(c2ccc(C#N)cc2)n2cc(COc3ccccc3)nn2)cc1` it is 11 µM.

In the case of `c1ccc(Cn2cncn2)cc1`, on Aromatase [1], the midpoint of inhibition, the IC50, lay at 4.11 µM.

`N#Cc1ccc(Cn2cc(COc3ccc([N+](=O)[O-])cc3)nn2)cc1` showed an IC50 against Aromatase [1] of 5.62 µM. The IC50 values of the last two compounds are within 1.5-fold of each other. In turn, `Cc1ccc(OCc2cn(C(c3ccccc3)c3ccccc3)nn2)cc1` showed a half-inhibitory concentration (IC50) at Aromatase [1] of 26.8 µM. This IC50 is about 4.8-fold higher than that of the compound before.

At Aromatase [1], `c1ccc(Cn2nccn2)cc1` registered an IC50 of 16.3 µM. On the same count and under the same terms, to `CCCCCCCCCCc1cn(C(c2ccc(C#N)cc2)c2ccc(C#N)cc2)nn1` belongs 16 µM; to `c1ccc(C(c2ccccc2)n2ccnn2)cc1`, 4.58 µM. On the same count and under the same terms, the figure for `N#Cc1ccc(Cn2cc(-c3ccccc3)nn2)cc1` is 3.38 µM; for `c1ccc(Cn2cc(COc3ccccc3)nn2)cc1` it is 10.6 µM. On the same count and under the same terms, to `CCCCCCCc1cn(Cc2ccc(C#N)cc2)nn1` belongs 3.07 µM.

On Aromatase [1], `CCCc1cn(C(c2ccc(C#N)cc2)c2ccc(C#N)cc2)nn1` yielded an IC50 of 4.7 µM. Same read-out and setting: to `COc1ccc(OCc2cn(Cc3ccccc3)nn2)cc1` belongs 17.3 µM; to `O=[N+]([O-])c1ccc(OCc2cn(C(c3ccccc3)c3ccccc3)nn2)cc1`, 11.6 µM. Still for that read-out and setting: to `N#Cc1ccc(Cn2nccn2)cc1` belongs 12.2 µM.

At Aromatase [1], `N#Cc1ccc(Cn2ccnn2)cc1` had an IC50 of 0.1 µM. Moreover, the “Ratio IC50” value at Aromatase [6] worked out at 12.5. In the case of `CCCCCCCc1cn(Cc2ccccc2)nn1`, on Aromatase [1], the IC50 is 9.53 µM.

`N#Cc1ccc(C(c2ccc(C#N)cc2)n2cc(C3CCCCC3)nn2)cc1` yielded an IC50 against Aromatase [1] of 19.3 µM.

`c1ccc(C(c2ccccc2)n2cncn2)cc1`: the IC50 at Aromatase [1] worked out at 1.1 µM.

The values are drawn from ChEMBL document CHEMBL1821589, “Synthesis and structure-activity relationship of 1- and 2-substituted-1,2,3-triazole letrozole-based analogues as aromatase inhibitors” (Eur J Med Chem, 2011).
